Data: ChEMBL document CHEMBL1201862, “PubChem BioAssay data set” (2004)
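Protocol summary: plate cells (96-well), add compound at 5 concentrations, incubate 48 h, interpolate endpoints linearly. Abbreviation: GI50, concentration required for 50% inhibition of growth.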 The source made the active and inactive calls. No stated cut-off is given here; in the data, active = GI50 up to about 1.1 µM and inactive = higher.

Key:
Assay in all cases: DTP human tumour cell line panel, 48 h
DMS-273 = system: DMS-273
OVCAR-4 = system: OVCAR-4
NCI-H460 = system: NCI-H460
786-0 = system: 786-0
RXF 393 = system: RXF 393
OVCAR-3 = system: OVCAR-3
SK-OV-3 = system: SK-OV-3
CAKI-1 = system: CAKI-1
HOP-62 = system: HOP-62
CCRF-CEM = system: CCRF-CEM
Malme-3M = system: Malme-3M
SN12C = system: SN12C
SNB-75 = system: SNB-75
HCT-15 = system: HCT-15
RPMI-8226 = system: RPMI-8226
OVCAR-5 = system: OVCAR-5
K562 = system: K562
UACC-62 = system: UACC-62
SF-539 = system: SF-539
SF-268 = system: SF-268
RXF 631 = system: RXF 631
SNB-19 = system: SNB-19
OVCAR-8 = system: OVCAR-8
IGROV-1 = system: IGROV-1
M14 = system: M14
SK-MEL-28 = system: SK-MEL-28
HCC 2998 = system: HCC 2998
HL-60 = system: HL-60
UACC-257 = system: UACC-257
NCI-H23 = system: NCI-H23
U-251 = system: U-251
NCI-H226 = system: NCI-H226
HCT-116 = system: HCT-116
DMS-114 = system: DMS-114
SK-MEL-5 = system: SK-MEL-5
KM-20L2 = system: KM-20L2
KM12 = system: KM12
SNB-78 = system: SNB-78
A498 = system: A498
SK-MEL-2 = system: SK-MEL-2
HT-29 = system: HT-29
A549 = system: A549
UO-31 = system: UO-31
COLO 205 = system: COLO 205
M19-MEL = system: M19-MEL
MOLT-4 = system: MOLT-4
HOP-92 = system: HOP-92
SF-295 = system: SF-295
TK-10 = system: TK-10

In the case of Cc1cc(C)nc(NS(=O)(=O)c2ccc(Nc3c4ccccc4nc4c(C(=O)N5CCN(CCO)CC5)ccc(Cl)c34)cc2)n1, the GI50 (DMS-273) is reported as > 100 µM (inactive), the GI50 (OVCAR-4) is reported as > 100 µM (inactive) and the GI50 (NCI-H460) is reported as > 100 µM (inactive). The GI50 (786-0) was 68.1 µM (inactive), the GI50 (RXF 393) was > 100 µM (inactive) and the GI50 (OVCAR-3) was > 100 µM (inactive). The GI50 (SK-OV-3) was > 100 µM (inactive), the GI50 (CAKI-1) was > 100 µM (inactive) and the GI50 (HOP-62) was > 100 µM (inactive). The GI50 (CCRF-CEM) was 25.9 µM (inactive), the GI50 (Malme-3M) was > 100 µM (inactive) and the GI50 (SN12C) was 94.2 µM (inactive). For the same compound, the GI50 (SNB-75) was 87.9 µM (inactive), the GI50 (HCT-15) was 52.2 µM and the GI50 (RPMI-8226) was 91.4 µM (inactive). For the same compound, the GI50 (OVCAR-5) was > 100 µM (inactive), the GI50 (K562) was 38.5 µM (inactive) and the GI50 (UACC-62) was 83 µM (inactive). The GI50 (SF-539) was > 100 µM (inactive), the GI50 (SF-268) was 76.9 µM (inactive) and the GI50 (RXF 631) was 85.5 µM (inactive). For the same compound, the GI50 (SNB-19) was > 100 µM (inactive), the GI50 (OVCAR-8) was > 100 µM (inactive) and the GI50 (IGROV-1) was > 100 µM (inactive). The GI50 (M14) was 34 µM (inactive), the GI50 (SK-MEL-28) was > 100 µM (inactive) and the GI50 (HCC 2998) was > 100 µM (inactive). The GI50 (HL-60) was 34.4 µM (inactive), the GI50 (UACC-257) was 51.5 µM (inactive) and the GI50 (NCI-H23) was > 100 µM (inactive). For the same compound, the GI50 (U-251) was 97.3 µM (inactive), the GI50 (NCI-H226) was > 100 µM (inactive) and the GI50 (HCT-116) was 50.9 µM (inactive). The GI50 (DMS-114) was 72.3 µM (inactive), the GI50 (SK-MEL-5) was 42.8 µM (inactive) and the GI50 (KM-20L2) was 60.8 µM (inactive). For the same compound, the GI50 (KM12) was > 100 µM (inactive), the GI50 (SNB-78) was > 100 µM (inactive) and the GI50 (A498) was > 100 µM (inactive). The GI50 (SK-MEL-2) was > 100 µM (inactive), the GI50 (HT-29) was 70 µM (inactive) and the GI50 (A549) was > 100 µM (inactive). The GI50 (UO-31) was > 100 µM (inactive), the GI50 (COLO 205) was 63 µM (inactive) and the GI50 (M19-MEL) was 76 µM (inactive). The GI50 (MOLT-4) was 25.9 µM (inactive), the GI50 (HOP-92) was > 100 µM (inactive) and the GI50 (SF-295) was > 100 µM (inactive). The GI50 (TK-10) was > 100 µM (inactive).
